Data published in patent US20060166236A1, “Allosteric enzyme coupled immunoassay (AECIA)” (priority 2004, published 2006).

Assays:
[1] = target: T1, potato tuber PPi-PFK (pyrophosphate-dependent fructose-6-phosphate kinase, EC2.7.1.90) (Solanum tuberosum, UniProt P21342+P21343); assay: Stimulation assay of potato tuber PPi-PFK by Fructose 2,6 Pi; assay type: biochemical; details: in the presence of 1 mM fructose 6-phosphate and 2.5 mM PPi; FIG. 3; read-out: half-maximal effect (activation of potato tuber PPi-PFK)
T1 construct: Peeled potato tubers (330 g) were homogenized in a blendor; from tissue; host or cells: potato tubers
T1 sequence (P21342 1-616): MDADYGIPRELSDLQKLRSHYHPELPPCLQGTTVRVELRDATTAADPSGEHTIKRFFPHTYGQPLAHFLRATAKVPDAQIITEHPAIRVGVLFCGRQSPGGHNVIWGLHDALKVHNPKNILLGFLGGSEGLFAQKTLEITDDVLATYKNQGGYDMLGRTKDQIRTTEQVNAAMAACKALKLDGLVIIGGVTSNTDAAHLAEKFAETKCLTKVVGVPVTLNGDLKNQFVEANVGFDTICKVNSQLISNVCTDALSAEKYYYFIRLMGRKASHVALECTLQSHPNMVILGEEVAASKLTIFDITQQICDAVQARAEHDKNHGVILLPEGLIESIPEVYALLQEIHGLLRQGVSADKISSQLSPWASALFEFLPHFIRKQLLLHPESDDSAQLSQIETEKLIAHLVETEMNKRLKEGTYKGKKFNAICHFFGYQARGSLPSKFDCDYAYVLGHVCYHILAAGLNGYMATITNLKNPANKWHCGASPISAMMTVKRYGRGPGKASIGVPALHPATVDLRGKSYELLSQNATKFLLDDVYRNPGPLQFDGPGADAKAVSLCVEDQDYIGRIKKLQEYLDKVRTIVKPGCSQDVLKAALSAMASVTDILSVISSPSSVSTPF
T1 sequence (P21343 1-569): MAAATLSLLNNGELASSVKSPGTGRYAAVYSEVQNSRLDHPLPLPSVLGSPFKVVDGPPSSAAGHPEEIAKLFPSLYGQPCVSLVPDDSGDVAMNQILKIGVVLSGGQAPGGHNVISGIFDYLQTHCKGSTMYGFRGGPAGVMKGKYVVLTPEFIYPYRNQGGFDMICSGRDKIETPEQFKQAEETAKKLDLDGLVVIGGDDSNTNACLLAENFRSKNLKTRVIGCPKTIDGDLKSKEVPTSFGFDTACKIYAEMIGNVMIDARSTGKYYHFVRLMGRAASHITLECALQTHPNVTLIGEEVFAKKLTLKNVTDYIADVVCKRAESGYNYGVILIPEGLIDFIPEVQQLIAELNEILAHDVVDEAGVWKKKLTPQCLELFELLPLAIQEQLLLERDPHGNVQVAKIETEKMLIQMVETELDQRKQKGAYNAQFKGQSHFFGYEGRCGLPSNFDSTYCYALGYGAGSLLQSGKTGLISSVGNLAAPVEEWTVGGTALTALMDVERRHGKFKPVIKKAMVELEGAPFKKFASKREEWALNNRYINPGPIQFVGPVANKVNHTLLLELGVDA
Description: Potato tubers PPi-PFK was purified according to the procedure described in Van Schafingen et al., Eur. J. Biochem., 129:191-195 (1982). Peeled potato tubers (330 g) were homogenized in a blendor with 2 volume of ice-cold 20 mM Hepes pH8.2 containing 20 mM potassium acetate and 2 mM dithiothreitol. The homogenate was filtered through cheese cloth. Solid sodium pyrophosphate and 1 mM MgCl2 were added to the filtrate to reach 2 mM and the pH was adjusted to 8.2 at 0° C. The mixture was brought to 59° C. by shaking in a water bath adjusted to 70° C. and maintained for 5 min in a water bath at 59° C.; it was then cooled and brought to pH 7.1 at 0° C. All subsequent steps were carried out at 0-4° C. Six (6) g of poly(ethylene glycol) 6000 were added per 100 ml of solution and after mixing for 15 min, the preparation was allowed to stand for 10 min and then centrifuged for 10 min at 4000×g; 8 g of poly(ethylene glycol) were then added per 100 ml of the resulting supernatant (700 ml) which was mixed and centrifuged as described above. The resulting pellet was dissolved in 40 ml of a solution containing 20 mM Tris, pH8.2, 20 mM KCl, and 2 mM dithiothreitol and applied to a column (25×120 mm) of DEAE-cellulose equilibrated with the same buffer. The column was washed with 100 ml of buffer and developed with a gradient of KCl (20-400 mM) in the same dithiothreitol/Tris buffer. […]

[2] = target: T2, rat liver PFK (ATP-dependent fructose-6-phosphate kinase, EC2.7.1.11) (Rattus norvegicus, UniProt P30835); assay: Stimulation assay of rat liver phosphofructokinase by Fructose 2,6 Pi; assay type: biochemical; details: in the presence of 2 mM fructose 6-phosphate and 1 mM AMP; pH 7.1, 22° C.; 3 mM ATP; FIG. 4; read-out: half-maximal effect (activation of rat liver PFK)
T2 construct: Fresh livers from rats were homogenized in a homogenizer with 3 volumes of chilled buffer; from tissue; host or cells: rat liver
T2 sequence (P30835 1-780): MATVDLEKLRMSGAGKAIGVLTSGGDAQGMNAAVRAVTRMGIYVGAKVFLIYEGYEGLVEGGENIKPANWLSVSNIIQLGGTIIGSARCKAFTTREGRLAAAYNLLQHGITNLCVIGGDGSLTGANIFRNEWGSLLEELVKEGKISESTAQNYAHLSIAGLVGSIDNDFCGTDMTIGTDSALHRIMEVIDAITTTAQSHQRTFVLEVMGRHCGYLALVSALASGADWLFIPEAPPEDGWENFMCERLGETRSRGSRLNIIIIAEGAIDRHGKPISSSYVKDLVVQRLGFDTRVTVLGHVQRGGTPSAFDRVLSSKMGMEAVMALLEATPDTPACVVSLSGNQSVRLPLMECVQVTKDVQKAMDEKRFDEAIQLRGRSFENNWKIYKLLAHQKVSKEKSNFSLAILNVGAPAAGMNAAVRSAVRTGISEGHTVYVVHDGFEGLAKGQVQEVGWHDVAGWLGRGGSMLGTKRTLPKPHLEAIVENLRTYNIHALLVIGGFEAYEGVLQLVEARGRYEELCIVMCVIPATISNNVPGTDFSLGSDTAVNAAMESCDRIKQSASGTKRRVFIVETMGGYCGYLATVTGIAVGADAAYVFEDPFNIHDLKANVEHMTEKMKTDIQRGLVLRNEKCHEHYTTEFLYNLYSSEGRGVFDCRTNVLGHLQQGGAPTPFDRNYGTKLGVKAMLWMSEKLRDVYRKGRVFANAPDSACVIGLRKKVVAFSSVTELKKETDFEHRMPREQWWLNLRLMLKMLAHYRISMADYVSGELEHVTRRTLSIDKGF
Description: ATP-dependent fructose-6-phosphate kinase (EC2.7.1.11) was purified from rat livers according to the procedures described in Reinhart and Lardy., Biochemistry, 19:1477-1484 (1980). The purification procedure includes a heat step, ammonium sulfate precipitation, and DEAE ion-exchange and gel filtration chromatography as follows:
The assay was performed at pH 7.1 and 22° C. The incubation mixture contained 100 mM KCl, 1 mM NH4Cl, 0.15 mM NADH, 50 mM Hepes buffer, 50 μg/ml aldolase, 10 μg/ml glycerol-3-phosphate dehydrogenase, 1 μg/ml triose phosphate isomerase, 5 mM MgCl2, 1 mM AMP, 2 mM fructose 6-phosphate, and 0.2 mM Pi. The reaction was initiated by adding 3 mM ATP.

EC50 [1]: ~5.5 nM
EC50 [2]: ~40 nM
Compound: O=P(O)(O)OCC1OC(CO)(OP(=O)(O)O)C(O)C1O (centres unmarked) [fructose 2, 6 Pi, fructose-2,6-bisphosphate]
